Test results as given in patent US20250051355A1, “COMPOUNDS, COMPOSITIONS, AND METHODS” (ACONCAGUA BIO, INC., priority 2023, published 2025).

Assays:
[1] = target: human calcitonin receptor (CTR) and RAMP3 (AMY3) (Homo sapiens, UniProt O60896+P30988); experiment: Amylin Receptor cAMP Assay II; type: cell-based; details: COS-7/AMY3 cells, cAMP dynamic 2 kit, read-out: Amylin Receptor cAMP Stimulation Activity: EC50
Excerpt: Amylin Receptor cAMPAssay II
AMYRs are heterodimers of the class B calcitonin (CT) G-protein-coupled receptor (CTR) and receptor activity-modifying proteins (RAMPs). All three RAMPs can interact with the CTR and form AMY1, AMY2, AMY3 with RAMP1, RAMP2 and RAMP3, respectively. Like other class B1 GPCRs, the CT receptor family is canonically coupled to Gs-mediated cAMP production, and measurement of cAMP accumulation has been the primary assay used to determine peptide selectivity and potency.
(§1) To optimize functional activity directed toward Gas coupling, COS-7 cells were stably transfected with human calcitonin receptor (CTR) and RAMP3, simultaneously. 100×concentration of compound working solutions were prepared with 4-fold serial dilution in 384-well Echo LDV plate (Labcyte, Cat #LP-0200-BC). 200 nL/well 100×concentration of compound working solutions were moved to 384-well white microplate (Perkin Elmer, Cat #6007680) using Labcyte ECHO550. […] cells/mL COS-7/AMY3 cell suspensions prepared with assay buffer [HBSS containing 20 mM HEPES (Gibco, Cat #15630-080), 0.5 mM IBMX (Sigma, Cat #15879) and 0.1% Casein (Sigma, Cat #C4765)], 20 μL cell suspensions were added to each well of previous generated assay plate which already contains 200 nL compound at 100×concentration using ThermoFisher Multidrop Combi (2000 cells/well). Seal the plate and incubate at 37° C. with 5% CO2 for 30 min.
(§2) After incubation, the cAMP assay signal was generated using cAMP dynamic 2 kit (Revvity, Cat #62AM4PEC). 10 μL cAMP-d2 working solution was added to each well, followed by 10 μL Anti-cAMP antibody-cryptate working solution which was added to each well using CERTUS FLEX LIQUID DISPENSER The samples were then incubated at room temperature for 1 hour protected from light. the fluorescence was read at 665 and 615 nm with Reader PerkinElmer EnVision 2105.

[2] = target: T1, human calcitonin receptor (CTR) (Homo sapiens, UniProt P30988); experiment: Calcitonin receptor (CTR) cAMP Assay; type: cell-based; details: COS7-human CTR Clone #2 cells, cAMP dynamic 2 kit; read-out: Calcitonin Receptor cAMP Stimulation Activity: EC50
T1 construct: expressed in transfected cells; host or cells: COS-7 (COS7-human CTR Clone #2)
T1 sequence (P30988 25-474): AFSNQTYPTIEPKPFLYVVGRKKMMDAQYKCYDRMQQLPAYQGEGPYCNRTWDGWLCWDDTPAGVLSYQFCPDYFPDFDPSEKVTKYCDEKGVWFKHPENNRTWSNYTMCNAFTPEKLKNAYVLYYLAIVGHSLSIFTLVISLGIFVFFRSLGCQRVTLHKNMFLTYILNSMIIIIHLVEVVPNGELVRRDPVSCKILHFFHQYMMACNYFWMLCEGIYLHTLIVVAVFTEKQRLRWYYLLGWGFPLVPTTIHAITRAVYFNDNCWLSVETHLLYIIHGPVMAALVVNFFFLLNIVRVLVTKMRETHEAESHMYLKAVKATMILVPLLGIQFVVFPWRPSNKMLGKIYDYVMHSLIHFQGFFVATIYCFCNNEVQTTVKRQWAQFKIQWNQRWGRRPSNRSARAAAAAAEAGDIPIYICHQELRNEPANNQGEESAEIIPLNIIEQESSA
Excerpt: Calcitonin receptor (CTR) cAMPAssay
The calcitonin receptor (CTR) belongs to the subfamily of GPCRs known as the secretin or ‘B’ family of GPCRs. Like other class B1 GPCRs, the CT receptor family is canonically coupled to Gs-mediated cAMP production, and measurement of cAMP accumulation has been the primary assay used to determine peptide selectivity and potency.
as §1, with “to create COS7-human CTR Clone #2 stable cell line. 100× concentration” for “and RAMP3, simultaneously. 100×concentration”, “COS7-human CTR Clone #2” for “COS-7/AMY3”
as §2, with “#62AM4PEC). […] cAMP-d2 working” for “#62AM4PEC). 10 μL cAMP-d2 working”

human calcitonin receptor (CTR) and RAMP3 (AMY3), sequence (O60896 24-148, one chain of several): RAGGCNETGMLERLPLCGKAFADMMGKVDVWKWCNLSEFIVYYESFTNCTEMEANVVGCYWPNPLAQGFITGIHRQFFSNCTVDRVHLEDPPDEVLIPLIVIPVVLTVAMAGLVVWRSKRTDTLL

| Structure (SMILES) | EC50 [1] [nM] | EC50 [2] [nM] |
| --- | --- | --- |
| Cc1nnc(-c2c(CCC3CCOCC3)nc3c(c2-c2ccc4c(c2)oc(=O)n4Cc2ccc(C#N)cn2)S(=O)(=O)CC3C(C)C)o1 (centres unmarked) [Compound 129, 6-[(6-(3-isopropyl-6-(5-methyl-1,3,4-oxadiazol-2-yl)-1,1-dioxo-5-[2-(tetrahydro-2H-pyran-4-yl)ethyl]-1λ^6-thia-4-aza-7-indanyl}-2-oxo-1,3-benzoxazol-3-yl)methyl]nicotinonitrile] | 211 | 4.46 |
| Cc1nnc(-c2c(CCC3CCOCC3)nc3c(c2-c2ccc4c(c2)oc(=O)n4Cc2ccc(C#N)c(F)c2)C(=O)N2CCOCC32O)o1 (centres unmarked) [Compound 135, 4-[(6-(4a-hydroxy-7-(5-methyl-1,3,4-oxadiazol-2-yl)-9-oxo-6-[2-(tetrahydro-2H-pyran-4-yl)ethyl]-1,2,4,4a-tetrahydro-9H-3-oxa-5,9a-diazafluoren-8-yl}-2-oxo-1,3-benzoxazol-3-yl)methyl]-2-fluorobenzonitrile] | 166 | 5.38 |
| Cc1nnc(-c2c(CCC3CCOCC3)nc3c(c2-c2cc4ccnc(N[C@@H]5CCc6ncccc65)c4s2)S(=O)(=O)N2CCC[C@@H]32)o1 [Compound 81, (S)-4-(7-(((R)-6,7-dihydro-5H-cyclopenta[b]pyridin-5-yl)amino)thieno[2,3-c]pyridin-2-yl)-3-(5-methyl-1,3,4-oxadiazol-2-yl)-2-(2-(tetrahydro-2H-pyran-4-yl)ethyl)-7,8,9,9a-tetrahydropyrrolo[1′,2′:2,3]isothiazolo[4,5-b]pyridine 5,5-dioxide] | 325 | 7.5 |
| Cc1nnc(-c2c(CCC3CCOCC3)nc3c(c2C2CCN(C(=O)Cc4ccc(F)c(F)c4)CC2)S(=O)(=O)CC3C(C)C)o1 (centres unmarked) [Compound 106, 7-{1-[2-(3,4-difluorophenyl)acetyl]-4-piperidyl}-3-isopropyl-6-(5-methyl-1,3,4-oadiazol-2-yl)-5-[2-(tetrahydro-2H-pyran-4-yl)ethyl]-1λ^6-thia-4-aza-1,1-indandione] | > 100 | 3230 |
| Cc1nnc(-c2c(CCC3CCOCC3)nc3c(c2-c2cc4ccnc(NCc5ccc(C#N)nc5)c4s2)S(=O)(=O)CC3C(C)C)o1 (centres unmarked) [Compound 131, 5-[(2-(3-isopropyl-6-(5-methyl-1,3,4-oxadiazol-2-yl)-1,1-dioxo-5-[2-(tetrahydro-2H-pyran-4-yl)ethyl]-1λ^6-thia-4-aza-7-indanyl}-1-thia-6-aza-7-indenylamino)methyl]-2-pyridinecarbonitrile] | 1490 | 332 |
| Cc1nnc(-c2c(CCC3CCOCC3)nc3c(c2-c2cc4ccnc(N[C@@H]5CCc6ncccc65)c4s2)S(=O)(=O)CC3C)o1 (stereo partly drawn) [Compound 94, N—(R)-4-aza-1-indanyl(2-(3-methyl-6-(5-methyl-1,3,4-oxadiazol-2-yl)-1,1-dioxo-5-[2-(tetrahydro-2H-pyran-4-yl)ethyl]-1λ^6-thia-4-aza-7-indanyl}-1-thia-6-aza-7-indenyl)amine] | 1150 | 179 |
| Cc1nnc(-c2c(CCC3CCOCC3)nc3c(c2-c2cc4ncnc(N[C@@H]5CCc6ncccc65)c4s2)S(=O)(=O)CC3C(C)C)o1 (stereo partly drawn) [Compound 89, N—(R)-4-aza-1-indanyl(2-(3-isopropyl-6-(5-methyl-1,3,4-oxadiazol-2-yl)-1,1-dioxo-5-[2-(tetrahydro-2H-pyran-4-yl)ethyl]-1λ^6-thia-4-aza-7-indanyl}-1-thia-4,6-diaza-7-indenyl)amine] | 587 | 42.9 |
| Cc1nnc(-c2c(CCC3CCOCC3)nc3c(c2-c2cc4ccnc(N[C@@H]5CCc6ncccc65)c4s2)S(=O)(=O)CC3C(C)C)o1 (stereo partly drawn) [Compound 78, 7-(7-(((R)-6,7-dihydro-5H-cyclopenta[b]pyridin-5-yl)amino)thieno[2,3-c]pyridin-2-yl)-3-isopropyl-6-(5-methyl-1,3,4-oxadiazol-2-yl)-5-(2-(tetrahydro-2H-pyran-4-yl)ethyl)-2,3-dihydrothieno[3,2-b]pyridine 1,1-dioxide] | 187 | 13 |

Stronger by EC50 [1], values ahead:

| EC50 [1] [nM] | EC50 [2] [nM] | Structure (SMILES) |
| --- | --- | --- |
| 78.8 | 6.17 | Cc1cc(-c2c(CCC3CCOCC3)nc3c(c2-c2ccc4c(c2)oc(=O)n4Cc2ccc(C#N)cn2)S(=O)(=O)N2CCC[C@@H]32)ccn1 [Compound 145, 6-[(6-((2S)-10-(2-methyl-4-pyridyl)-7,7-dioxo-11-[2-(tetrahydro-2H-pyran-4-yl)ethyl]-7λ^6-thia-6,12-diazatricyclo[6.4.0.0^2,6]dodeca-1(12),8,10-trien-9-yl}-2-oxo-1,3-benzoxazol-3-yl)methyl]nicotinonitrile] |
| 55.3 | 10.2 | CC(C)C1CS(=O)(=O)c2c1nc(CCC1CCOCC1)c(-c1nnc(N)o1)c2-c1cc2ccnc(N[C@@H]3CCc4ncccc43)c2s1 (stereo partly drawn) [Compound 120, 7-{7-[(R)-4-aza-1-indanylamino]-1-thia-6-aza-2-indenyl}-6-(5-amino-1,3,4-oxadiazol-2-yl)-3-isopropyl-5-[2-(tetrahydro-2H-pyran-4-yl)ethyl]-1λ^6-thia-4-aza-1,1-indandione] |
| 42.4 | 1.25 | Cc1nnc(-c2c(CCC3CCOCC3)nc3c(c2-c2ccc4c(c2)oc(=O)n4Cc2ccc(C#N)c(F)c2)C(=O)N2CCOC[C@@H]32)o1 [Compound 104, 4-[(6-((4aR)-7-(5-methyl-1,3,4-oxadiazol-2-yl)-9-oxo-6-[2-(tetrahydro-2H-pyran-4-yl)ethyl]-1,2,4,4a-tetrahydro-9H-3-oxa-5,9a-diazafluoren-8-yl}-2-oxo-1,3-benzoxazol-3-yl)methyl]-2-fluorobenzonitrile] |
| 83.4 | 2.58 | Cc1nnc(-c2c(CCC34CCC(CC3)OC4)nc3c(c2-c2ccc4c(c2)oc(=O)n4Cc2ccc(C#N)cn2)c(=O)n2n3CCC2)o1 [Compound 144, 6-((6-[10-(5-methyl-1,3,4-oxadiazol-2-yl)-11-(2-(2-oxabicyclo[2.2.2]oct-4-yl)ethyl}-7-oxo-2,6,12-triazatricyclo[6.4.0.0^2,^6]dodeca-1(12),8,10-trien-9-yl]-2-oxo-1,3-benzoxazol-3-yl}methyl)nicotinonitrile] |
| 74.3 | 4.45 | Cc1nnc(-c2c(CCc3ccc(F)cc3)nc3c(c2-c2cnc4c(ccn4Cc4ccc(C#N)c(F)c4)c2)c(=O)n2n3CCC2)o1 [Compound 141, 2-fluoro-4-[(5-(11-[2-(p-fluorophenyl)ethyl]-10-(5-methyl-1,3,4-oxadiazol-2-yl)-7-oxo-2,6,12-triazatricyclo[6.4.0.0]dodeca-1(12),8,10-trien-9-yl}-1H-1,7-diazainden-1-yl)methyl]benzonitrile] |
